This test addresses T1, MT3 sites (Mesocricetus auratus, UniProt A0ABM2YAB8).
T1 construct: carried out on hamster brain membranes using 2-[^125I] iodomelatonin as radioligand; from tissue; host or cells: hamster brain membranes
T1 sequence (A0ABM2YAB8 1-231): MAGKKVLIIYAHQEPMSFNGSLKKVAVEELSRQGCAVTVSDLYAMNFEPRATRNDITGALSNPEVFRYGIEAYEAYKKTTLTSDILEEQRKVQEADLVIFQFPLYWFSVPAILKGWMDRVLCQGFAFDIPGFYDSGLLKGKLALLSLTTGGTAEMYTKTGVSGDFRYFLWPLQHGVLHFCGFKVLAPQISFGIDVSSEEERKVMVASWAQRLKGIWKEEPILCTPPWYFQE
Put plainly: Study of binding to melatonin MT3 binding sites. Conditions: hamster brain membranes, 2-[125I] iodomelatonin radioligand, 30 minutes, 4° C. The protocol:
Binding to MT3 sites is characterised by remarkably rapid association and dissociation kinetics and by tissue localisation (brain).
The experiments of binding to MT3 sites are carried out on hamster brain membranes using 2-[^125I] iodomelatonin as radioligand in accordance with the protocol described by P. Paul et al. (J. Pharmacol. Exp. Ther. 1999 290, 334). The membranes are incubated for 30 minutes with 2-[^125I] iodomelatonin at a temperature of 4° C. and at different concentrations of the compounds to be tested. Following incubation, the membranes are rapidly filtered and then washed with cold buffer using a filtration system. The radioactivity retained is measured using a scintillation counter.

Experimental findings from patent US6465660B1, “Isoindoloindolone compounds” (Les Laboratoires Servier, priority 2001, dated 2002) are described below.

One may read the IC50 as the concentration needed to halve the response being measured. Read a low IC50 as greater potency. Turning to `COc1ccc2[nH]cc(CCNC(C)=O)c2c1` [melatonin, N-acetyl-5-methoxytryptamine], the 50% inhibitory concentration (IC50) amounted to 45 nM.
